Reference: ChEMBL document CHEMBL2424644, “Synthesis and antiproliferative evaluation of novel benzoimidazole-contained oxazole-bridged analogs of combretastatin A-4” (Eur J Med Chem, 2013)

How the values were obtained:
[1] = tested on: HT-29; assay: Cytotoxicity against human HT-29 cells assessed as growth inhibition after 72 hrs by MTT assay; assay type: functional, cell-based; settings: HT-29, 72 h
[2] = tested on: HepG2; assay: Cytotoxicity against human HepG2 cells assessed as growth inhibition after 72 hrs by MTT assay; assay type: functional, cell-based; settings: HepG2, 72 h
[3] = tested on: MCF7; assay: Cytotoxicity against human MCF7 cells assessed as growth inhibition after 72 hrs by MTT assay; assay type: functional, cell-based; settings: MCF7, 72 h
[4] = tested on: A549; assay: Cytotoxicity against human A549 cells assessed as growth inhibition after 72 hrs by MTT assay; assay type: functional, cell-based; settings: A549, 72 h
[5] = tested on: BXPC-3; assay: Cytotoxicity against human BxPC3 cells assessed as growth inhibition after 72 hrs by MTT assay; assay type: functional, cell-based; settings: BXPC-3, 72 h
[6] = tested on: KB; assay: Cytotoxicity against human KB cells assessed as growth inhibition after 72 hrs by MTT assay; assay type: functional, cell-based
[7] = tested on: MX1; assay: Cytotoxicity against human MX1 cells assessed as growth inhibition after 72 hrs by MTT assay; assay type: functional, cell-based; settings: MX1, 72 h
[8] = tested on: KB; assay: Cytotoxicity against vincristine-resistant human KB cells assessed as growth inhibition after 72 hrs by MTT assay; assay type: functional, cell-based
[9] = tested on: MX1; assay: Cytotoxicity against taxol-resistant human MX1 cells assessed as growth inhibition after 72 hrs by MTT assay; assay type: functional, cell-based; settings: MX1, 72 h
[10] = tested on: HT-29; assay: Cell cycle arrest in human HT-29 cells assessed as accumulation at G0/G1 phase at 100 nM after 24 hrs by propidium iodide staining-based flow cytometric analysis (reference value: 68.24%); assay type: functional
[11] = tested on: Mus musculus; assay: Toxicity in KM mouse allografted with mouse H22 cells assessed as body weight at 10 mg/kg, ip administered on day 1, 3, 5, 7 measured on day 8 (reference value: 30 +/- 3.24 g); assay type: organism-based; set-up: dose 10 mg/kg, route intraperitoneal; settings: in vivo
[12] = tested on: HT-29; assay: Cell cycle arrest in human HT-29 cells assessed as accumulation at S phase at 100 nM after 24 hrs by propidium iodide staining-based flow cytometric analysis (reference value: 24.39%); assay type: functional
[13] = tested on: BXPC-3; assay: Potency index, ratio of vincristine IC50 to compound IC50 for human BxPC3 cells; assay type: functional
[14] = tested on: HT-29; assay: Cell cycle arrest in human HT-29 cells assessed as accumulation at G2/M phase at 100 nM after 24 hrs by propidium iodide staining-based flow cytometric analysis (reference value: 7.37%); assay type: functional
[15] = tested on: HT-29; assay: Cell cycle arrest in human HT-29 cells assessed as accumulation at S phase at 12.5 nM after 24 hrs by propidium iodide staining-based flow cytometric analysis (reference value: 24.39%); assay type: functional
[16] = tested on: HT-29; assay: Cell cycle arrest in human HT-29 cells assessed as accumulation at S phase at 50 nM after 24 hrs by propidium iodide staining-based flow cytometric analysis (reference value: 24.39%); assay type: functional
[17] = tested on: HT-29; assay: Cell cycle arrest in human HT-29 cells assessed as accumulation at G2/M phase at 50 nM after 24 hrs by propidium iodide staining-based flow cytometric analysis (reference value: 7.37%); assay type: functional
[18] = tested on: HT-29; assay: Cell cycle arrest in human HT-29 cells assessed as accumulation at G0/G1 phase at 12.5 nM after 24 hrs by propidium iodide staining-based flow cytometric analysis (reference value: 68.24%); assay type: functional
[19] = molecular target: Tubulin; assay: Inhibition of tubulin (unknown origin) polymerization measured for 60 mins; assay type: protein-complex assay, Homo sapiens
[20] = tested on: Mus musculus; assay: Toxicity in KM mouse allografted with mouse H22 cells assessed as body weight at 15 mg/kg, ip administered on day 1 and 4 measured on day 8 (reference value: 30 +/- 3.24 g); assay type: organism-based; set-up: dose 15 mg/kg, route intraperitoneal; settings: in vivo
[21] = tested on: H22; assay: Antitumor activity against mouse H22 cells allografted in KM mouse assessed as tumor growth inhibition at 15 mg/kg, ip administered on day 1 and 4 measured on day 8 relative to control; assay type: functional; settings: route intraperitoneal, read-out: TGI
[22] = tested on: HT-29; assay: Potency index, ratio of combretastatin A-4 IC50 to compound IC50 for human HT-29 cells; assay type: functional
[23] = tested on: HT-29; assay: Cell cycle arrest in human HT-29 cells assessed as accumulation at G2/M phase after 24 hrs by propidium iodide staining-based flow cytometric analysis; assay type: functional
[24] = tested on: H22; assay: Antitumor activity against mouse H22 cells allografted in KM mouse assessed as tumor growth inhibition at 7.5 mg/kg, ip administered on day 1 to 7 measured on day 8 relative to control; assay type: functional; settings: route intraperitoneal, read-out: TGI
[25] = tested on: H22; assay: Antitumor activity against mouse H22 cells allografted in KM mouse assessed as tumor growth inhibition at 10 mg/kg, ip administered on day 1, 3, 5, 7 measured on day 8 relative to control; assay type: functional; settings: route intraperitoneal, read-out: TGI
[26] = tested on: Mus musculus; assay: Toxicity in KM mouse allografted with mouse H22 cells assessed as body weight at 7.5 mg/kg, ip administered on day 1 to 7 measured on day 8 (reference value: 30 +/- 3.24 g); assay type: organism-based; set-up: dose 7.5 mg/kg, route intraperitoneal; settings: in vivo
[27] = tested on: Mus musculus; assay: Toxicity in KM mouse allografted with mouse H22 cells assessed as body weight at 20 mg/kg, ip administered on day 1 measured on day 8 (reference value: 30 +/- 3.24 g); assay type: organism-based; set-up: dose 20 mg/kg, route intraperitoneal; settings: in vivo
[28] = tested on: HT-29; assay: Cell cycle arrest in human HT-29 cells assessed as accumulation at G2/M phase at 12.5 nM after 24 hrs by propidium iodide staining-based flow cytometric analysis (reference value: 7.37%); assay type: functional
[29] = tested on: HT-29; assay: Cell cycle arrest in human HT-29 cells assessed as accumulation at G0/G1 phase at 50 nM after 24 hrs by propidium iodide staining-based flow cytometric analysis (reference value: 68.24%); assay type: functional
[30] = tested on: MCF7; assay: Potency index, ratio of combretastatin A-4 IC50 to compound IC50 for human MCF7 cells; assay type: functional
[31] = tested on: H22; assay: Antitumor activity against mouse H22 cells allografted in KM mouse assessed as tumor growth inhibition at 20 mg/kg, ip administered on day 1 measured on day 8 relative to control; assay type: functional; settings: route intraperitoneal, read-out: TGI

SMILES: COc1cc(-c2ncoc2-c2ccc(OC)c3c2ncn3CCO)cc(OC)c1OC
- IC50 [1]: 170 nM
- IC50 [2]: 250 nM
- IC50 [3]: 510 nM

SMILES: COc1cc(-c2ncoc2-c2ccc(OC)c3ncn(CC(N)=O)c23)cc(OC)c1OC
- IC50 [4]: > 5000 nM
- IC50 [1]: 1600 nM
- IC50 [5]: 1390 nM
- IC50 [2]: 870 nM
- IC50 [3]: 2050 nM

SMILES: COC(=O)c1sccc1S(=O)(=O)n1cnc2c(-c3ocnc3-c3cc(OC)c(OC)c(OC)c3)ccc(OC)c21
- IC50 [4]: 2510 nM
- IC50 [1]: 163 nM
- IC50 [5]: 941 nM
- IC50 [2]: 134 nM
- IC50 [3]: 435 nM

SMILES: COc1cc(-c2ncoc2-c2ccc(OC)c3ncn(CCCO)c23)cc(OC)c1OC
- IC50 [6]: 346 nM
- IC50 [7]: 3780 nM
- IC50 [1]: 290 nM
- IC50 [2]: 310 nM
- IC50 [3]: 500 nM
- IC50 [8]: > 10000 nM
- IC50 [9]: > 10000 nM

SMILES: COc1cc(-c2ncoc2-c2ccc(OC)c3c2ncn3C)cc(OC)c1OC
- IC50 [6]: 41 nM
- IC50 [7]: 334 nM
- IC50 [4]: 9.6 nM
- IC50 [1]: 14 nM
- IC50 [5]: 56 nM
- IC50 [2]: 29 nM
- IC50 [3]: 39 nM
- IC50 [8]: 27 nM
- IC50 [9]: 12800 nM

SMILES: CCOC(=O)Cn1cnc2c(-c3ocnc3-c3cc(OC)c(OC)c(OC)c3)ccc(OC)c21
- IC50 [4]: > 500 nM
- IC50 [1]: > 500 nM
- IC50 [5]: > 500 nM
- IC50 [2]: > 500 nM
- IC50 [3]: > 500 nM

SMILES: COc1cc(-c2ncoc2-c2ccc(OC)c3ncn(CC(=O)O)c23)cc(OC)c1OC
- IC50 [4]: > 5000 nM
- IC50 [1]: > 5000 nM
- IC50 [5]: > 5000 nM
- IC50 [2]: > 5000 nM
- IC50 [3]: > 5000 nM

SMILES: COc1ccc(/C=C\c2cc(OC)c(OC)c(OC)c2)cc1O [COMBRETASTATIN A4]
- IC50 [6]: 8 nM
- IC50 [7]: 52 nM
- IC50 [5]: < 50 nM
- IC50 [3]: 220 nM
- IC50 [8]: 6 nM
- IC50 [9]: 71 nM

SMILES: COc1cc(-c2ncoc2-c2ccc(OC)c3[nH]cnc23)cc(OC)c1OC
- IC50 [6]: 16 nM
- Activity [10]: 25.71%
- IC50 [7]: 397 nM
- Activity [11]: 28.4 g
- Activity [12]: 30.04%
- IC50 [1]: 8.4 nM
- Ratio IC50 [13]: 16
- IC50 [5]: 31 nM
- Activity [14]: 44.25%
- Activity [15]: 24.97%
- Activity [16]: 34.83%
- Activity [17]: 35.63%
- Activity [18]: 50.29%
- IC50 [19]: 390 nM
- Activity [20]: 24.4 g
- inhibition in vivo at 15 mg/kg [21]: 66%
- Ratio IC50 [22]: 32
- Activity [23]: Dose-dependent effect
- inhibition in vivo at 7.5 mg/kg [24]: 55%
- IC50 [3]: 25 nM
- inhibition in vivo at 10 mg/kg [25]: 52%
- Activity [26]: 25.5 g
- IC50 [8]: 65 nM
- Activity [27]: 30.4 g
- Activity [28]: 14.75%
- Activity [29]: 29.54%
- Ratio IC50 [30]: 8
- inhibition in vivo at 20 mg/kg [31]: 42%
- IC50 [9]: 249 nM

SMILES: COc1cc(-c2ncoc2-c2ccc(OC)c3ncn(C)c23)cc(OC)c1OC
- IC50 [4]: 37 nM
- IC50 [1]: 52 nM
- IC50 [5]: 220 nM
- IC50 [2]: 200 nM
- IC50 [3]: 41 nM
